In the supplement of paper PMC10307832:

The cell lines below were run with O=C(Nc1cc(C(F)(F)F)cc(C(F)(F)F)c1)c1cc(Cl)ccc1O [IMD-0354] + O=C(c1cc(Cc2n[nH]c(=O)c3ccccc23)ccc1F)N1CCN(C(=O)C2CC2)CC1 [Olaparib] (partner 8 µM) (assay: relative viability (nuclei count vs DMSO), 5 days (fraction); higher = more cells survive). Conditions: first compound 1.265 µM.
In short: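 Lung cancer cell lines in 1536-well plates got either a single drug or a fixed anchor-drug dose together with five library-drug doses (not always all listed) in √10 steps, by pin tool, on the day after seeding. Nuclei were counted after 5 days, and relative viability is the treated-to-vehicle ratio of nuclei counts. Values are medians of duplicate plates.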

Question: Which relative viability does the source give for CAL-12T here?
Answer: The relative viability was 0.181.

Question: With NCI-H1651 as the cell line, how does the relative viability read?
Answer: Its relative viability is 0.177.

Question: EPLC-272H was tested. Which relative viability did it give?
Answer: Its relative viability is 0.106.

Question: How did the relative viability turn out when NCI-H2228 was run?
Answer: The relative viability was 0.274.

Question: For NCI-H1792, which relative viability is on record?
Answer: Its relative viability is 0.21.

Question: Which relative viability does the source give for NCI-H1355 here?
Answer: Its relative viability is 0.198.

Question: For NCI-H3122, which relative viability is on record?
Answer: Its relative viability is 0.509.

Question: How did the relative viability turn out when NCI-H1437 was run?
Answer: Its relative viability is 0.218.

Question: For NCI-H1755, which relative viability is on record?
Answer: The relative viability was 0.585.

Question: With NCI-H2023 as the cell line, how does the relative viability read?
Answer: Its relative viability is 0.0756.

Question: For HCC-15, which relative viability is on record?
Answer: The relative viability was 0.317.

Question: How did the relative viability turn out when NCI-H1944 was run?
Answer: Its relative viability is 0.302.

Question: How did the relative viability turn out when PC-14 was run?
Answer: The relative viability was 0.0804.

Same assay, conditions: first compound 4 µM

Question: Which relative viability does the source give for NCI-H522 here?
Answer: Its relative viability is 0.333.

Question: NCI-H727 was tested. Which relative viability did it give?
Answer: The relative viability was 0.318.

Question: Which relative viability does the source give for NCI-H1650 here?
Answer: Its relative viability is 0.145.

Question: EBC-1 was tested. Which relative viability did it give?
Answer: The relative viability was 0.171.

Question: Which relative viability does the source give for NCI-H1703 here?
Answer: Its relative viability is 0.0868.

Question: Which relative viability does the source give for NCI-H1993 here?
Answer: The relative viability was 0.541.

Question: SK-LU-1 was tested. Which relative viability did it give?
Answer: Its relative viability is 0.205.

Question: With NCI-H838 as the cell line, how does the relative viability read?
Answer: The relative viability was 0.302.

Question: For LCLC-103H, which relative viability is on record?
Answer: The relative viability was 0.379.

Question: For NCI-H520, which relative viability is on record?
Answer: The relative viability was 0.189.

Question: NCI-H2126 was tested. Which relative viability did it give?
Answer: Its relative viability is 0.364.

Question: With EMC-BAC-2 as the cell line, how does the relative viability read?
Answer: Its relative viability is 0.26.

Question: With NCI-H2085 as the cell line, how does the relative viability read?
Answer: The relative viability was 0.377.

Question: How did the relative viability turn out when Calu-6 was run?
Answer: Its relative viability is 0.111.

Question: Which relative viability does the source give for HCC-366 here?
Answer: The relative viability was 0.0706.

Question: With NCI-H1666 as the cell line, how does the relative viability read?
Answer: Its relative viability is 0.562.

Question: For NCI-H596, which relative viability is on record?
Answer: Its relative viability is 0.463.

Question: How did the relative viability turn out when NCI-H1395 was run?
Answer: Its relative viability is 0.337.

Question: For NCI-H2087, which relative viability is on record?
Answer: The relative viability was 0.122.

Question: With NCI-H2342 as the cell line, how does the relative viability read?
Answer: Its relative viability is 0.432.

Question: Which relative viability does the source give for LK-2 here?
Answer: Its relative viability is 0.172.

Question: With H3255 as the cell line, how does the relative viability read?
Answer: Its relative viability is 0.318.

Question: How did the relative viability turn out when COR-L23 was run?
Answer: The relative viability was 0.127.

Question: Which relative viability does the source give for COR-L 105 here?
Answer: The relative viability was 0.443.

Question: IA-LM was tested. Which relative viability did it give?
Answer: The relative viability was 0.133.

Question: With LOU-NH91 as the cell line, how does the relative viability read?
Answer: Its relative viability is 0.282.

Question: How did the relative viability turn out when ChaGo-K-1 was run?
Answer: The relative viability was 0.218.

Question: How did the relative viability turn out when NCI-H358 was run?
Answer: Its relative viability is 0.198.

Question: How did the relative viability turn out when NCI-H2405 was run?
Answer: Its relative viability is 0.258.

Question: Which relative viability does the source give for HOP-62 here?
Answer: The relative viability was 0.0835.

Question: For HCC-44, which relative viability is on record?
Answer: The relative viability was 0.296.

Question: With A549 as the cell line, how does the relative viability read?
Answer: The relative viability was 0.0605.

Question: For SW 900, which relative viability is on record?
Answer: The relative viability was 0.258.

Question: With LU99A as the cell line, how does the relative viability read?
Answer: The relative viability was 0.179.

Question: How did the relative viability turn out when BEN was run?
Answer: The relative viability was 0.394.

Question: Which relative viability does the source give for HARA here?
Answer: Its relative viability is 0.311.

Question: With NCI-H1648 as the cell line, how does the relative viability read?
Answer: Its relative viability is 0.225.

Question: Which relative viability does the source give for HCC-78 here?
Answer: The relative viability was 0.291.

Question: Which relative viability does the source give for NCI-H322M here?
Answer: Its relative viability is 0.517.

Question: With LCLC-97TM1 as the cell line, how does the relative viability read?
Answer: The relative viability was 0.141.

Question: With NCI-H2009 as the cell line, how does the relative viability read?
Answer: Its relative viability is 0.115.

Question: Which relative viability does the source give for A-427 here?
Answer: Its relative viability is 0.15.

Question: NCI-H441 was tested. Which relative viability did it give?
Answer: Its relative viability is 0.194.

Question: With NCI-H661 as the cell line, how does the relative viability read?
Answer: The relative viability was 0.261.

Question: How did the relative viability turn out when NCI-H1734 was run?
Answer: The relative viability was 0.175.

Question: For NCI-H460, which relative viability is on record?
Answer: Its relative viability is 0.0473.

Question: With NCI-H2347 as the cell line, how does the relative viability read?
Answer: The relative viability was 0.265.

Question: SW 1573 was tested. Which relative viability did it give?
Answer: Its relative viability is 0.0862.

Question: How did the relative viability turn out when NCI-H1793 was run?
Answer: Its relative viability is 0.251.

Question: For 201T, which relative viability is on record?
Answer: The relative viability was 0.291.

Question: How did the relative viability turn out when NCI-H1915 was run?
Answer: Its relative viability is 0.136.

Question: For HCC-827, which relative viability is on record?
Answer: The relative viability was 0.21.

Question: LXF-289 was tested. Which relative viability did it give?
Answer: Its relative viability is 0.0925.

Question: Which relative viability does the source give for NCI-H23 here?
Answer: Its relative viability is 0.197.

Question: With NCI-H1299 as the cell line, how does the relative viability read?
Answer: The relative viability was 0.16.

Question: How did the relative viability turn out when NCI-H647 was run?
Answer: The relative viability was 0.113.

Question: For CAL-12T, which relative viability is on record?
Answer: The relative viability was 0.203.

Question: How did the relative viability turn out when NCI-H1651 was run?
Answer: Its relative viability is 0.124.

Question: EPLC-272H was tested. Which relative viability did it give?
Answer: Its relative viability is 0.38.

Question: With NCI-H2228 as the cell line, how does the relative viability read?
Answer: The relative viability was 0.172.

Question: For NCI-H1792, which relative viability is on record?
Answer: The relative viability was 0.172.

Question: For NCI-H1355, which relative viability is on record?
Answer: The relative viability was 0.175.

Question: With NCI-H3122 as the cell line, how does the relative viability read?
Answer: Its relative viability is 0.137.

Question: Which relative viability does the source give for NCI-H1437 here?
Answer: The relative viability was 0.232.

Question: With NCI-H1755 as the cell line, how does the relative viability read?
Answer: Its relative viability is 0.23.

Question: How did the relative viability turn out when NCI-H2023 was run?
Answer: Its relative viability is 0.183.

Question: HCC-15 was tested. Which relative viability did it give?
Answer: The relative viability was 0.157.

Question: NCI-H1944 was tested. Which relative viability did it give?
Answer: The relative viability was 0.191.

Question: PC-14 was tested. Which relative viability did it give?
Answer: The relative viability was 0.126.
